Results reported in US8586609B2, “Aryl-substituted polycyclic amines, method for the production thereof, and use thereof as a medicament” (Sanofi-Aventis Deutschland GmbH, priority 2004, dated 2013).

System: female NMRI mice
Experiment: Anorectic effect: reduction in cumulative milk consumption of treated compared with control animals
Format: in vivo
Conditions: oral dose 30 mg/kg by gavage; female NMRI mice after withdrawal of feed for 17 hours; condensed milk consumption determined every half hour for 7 hours
Description: The anorectic effect was tested on female NMRI mice. After withdrawal of feed for 17 hours, the test product was administered by gavage. The animals were housed singly with free access to drinking water and were offered condensed milk 30 minutes after administration of the product. The condensed milk consumption was determined every half hour for 7 hours, and the general wellbeing of the animals was observed. The measured milk consumption was compared with the vehicle-treated control animals.

SMILES: CN1C[C@H]2CCN(c3ccc(NC(=O)N4CCC(c5ccc(Cl)cc5)CC4)cc3)[C@H]2C1 (stereo in doubt) [Example 9, 4-(4-Chlorophenyl)piperidine-1-carboxylic acid [4-(5-methylhexahydropyrrolo[3,4-b]pyrrol-1-yl)phenyl]amide]
- Reduction in cumulative milk consumption as % of the control: 82 % of the control
